This assay deals with P388 leukemia ip, CD2F1 mice, survival T/C. Description: NCI In Vivo Anticancer Drug Screen. Data for tumor model P388 Leukemia (intraperitoneal) in CD2F1 (CDF1) mice. To be noted: endpoint: median survival time, higher = longer survival. A digest of the protocol:
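Mice carrying the transplanted tumor received test compound or vehicle. Survival was recorded in each group, and the value is the treated-group measurement divided by that of the vehicle-treated control group.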

[1] abbreviates: dose: 12.5 mg/kg/injection, schedule: Q01DX009 (ip), vehicle: saline with Tween-80.
The mark [2] stands for this setting: dose: 25.0 mg/kg/injection, schedule: Q01DX009 (ip), vehicle: saline with Tween-80.
Setting [3] is: dose: 50.0 mg/kg/injection, schedule: Q01DX009 (ip), vehicle: saline with Tween-80.
Where [4] appears, read: dose: 100.0 mg/kg/injection, schedule: Q01DX009 (ip), vehicle: saline with Tween-80.
The mark [5] stands for this setting: dose: 200.0 mg/kg/injection, schedule: Q01DX009 (ip), vehicle: saline with Tween-80.
Where [6] appears, read: dose: 50.0 mg/kg/injection, schedule: Q01DX005 (ip), vehicle: Klucel (hydroxypropylcellulose) (HPC).
[7] abbreviates: dose: 100.0 mg/kg/injection, schedule: Q01DX005 (ip), vehicle: Klucel (hydroxypropylcellulose) (HPC).
Where [8] appears, read: dose: 200.0 mg/kg/injection, schedule: Q01DX005 (ip), vehicle: Klucel (hydroxypropylcellulose) (HPC).
Where [9] appears, read: dose: 50.0 mg/kg/injection, schedule: Q04DX003 (ip), vehicle: saline with Tween-80.
Setting [10] is: dose: 100.0 mg/kg/injection, schedule: Q04DX003 (ip), vehicle: saline with Tween-80.
[11] abbreviates: dose: 200.0 mg/kg/injection, schedule: Q04DX003 (ip), vehicle: saline with Tween-80.
[12] abbreviates: dose: 50.0 mg/kg/injection, schedule: Q01DX005 (ip), vehicle: saline with Tween-80.
The mark [13] stands for this setting: dose: 100.0 mg/kg/injection, schedule: Q01DX005 (ip), vehicle: saline with Tween-80.
Setting [14] is: dose: 50.0 mg/kg/injection, schedule: Q01DX009 (ip), vehicle: saline.
Where [15] appears, read: dose: 100.0 mg/kg/injection, schedule: Q01DX009 (ip), vehicle: saline.
[16] abbreviates: dose: 60.0 mg/kg/injection, schedule: Q01DX005 (ip), vehicle: saline with Tween-80.
Where [17] appears, read: dose: 120.0 mg/kg/injection, schedule: Q01DX005 (ip), vehicle: saline with Tween-80.
The mark [18] stands for this setting: dose: 200.0 mg/kg/injection, schedule: Q01DX005 (ip), vehicle: saline with Tween-80.

Several values for one entry are separate records, joined by “and”; a condition that tells them apart may be missing. Identical values can stand only once. Toxic doses and inconclusive results are not listed.

Consider `CC1(CO)CSC(Nc2ccc(Cl)c(Cl)c2)=N1` (configuration not stated), for which the T/C runs as follows: (dose: 3.12 mg/kg/injection, schedule: Q01DX009 (ip), vehicle: saline with Tween-80) 101 % of control; (dose: 6.25 mg/kg/injection, schedule: Q01DX009 (ip), vehicle: saline with Tween-80) 100 % of control and 98 % of control; under setting [1], 102 % of control; under setting [2], 104 % of control; under setting [3], 100 % of control; under setting [4], 113 % of control. Further, the T/C under setting [5] is 98 % of control.

For `OCCN1CCN(CCCN2c3cscc3Sc3ccc(Cl)cc32)CC1`, the T/C reads like this: under setting [6], 94 % of control and 95 % of control; under setting [7], 101 % of control.

With `CC(Nc1ccccc1)C(=Nc1ccccc1)Nc1ccccc1` (configuration not stated), the T/C runs as follows: under setting [6], 110 % of control; under setting [7], 113 % of control; under setting [8], 113 % of control.

As for `O=C(O)/C=C/C(=O)Nc1ccc(N=Nc2ccccc2)cc1`, the T/C under setting [9] was 104 % of control, the T/C under setting [10] was 100 % of control and the T/C under setting [11] was 90 % of control.

For `CCN(CC)CC(CN(CC)CC)N(CCO)CC(C)C`, the T/C was 93 % of control (dose: 50.0 mg/kg/injection, schedule: Q01DX005 (ip), vehicle: saline) and 100 % of control (dose: 100.0 mg/kg/injection, schedule: Q01DX005 (ip), vehicle: saline).

As to `CCC12C=CCN3CC[C@@]4(c5cc([C@@]6(C(=O)OC)C[C@@H]7CN(CCc8c6[nH]c6ccccc86)C[C@](O)(CC)C7)c(OC)cc5N(C)[C@H]4[C@@](O)(C(=O)OC)[C@@H]1OC(=O)CCCCCCCCCCCN1C(=O)C=CC1=O)[C@H]32` (some centres not stated), the T/C is 124 % of control (dose: 6.25 mg/kg/injection, schedule: Q01DX001 (ip), vehicle: other); 161 % of control (dose: 12.5 mg/kg/injection, schedule: Q01DX001 (ip), vehicle: saline with Tween-80); 200 % of control (dose: 25.0 mg/kg/injection, schedule: Q01DX001 (ip), vehicle: other); 238 % of control (dose: 25.0 mg/kg/injection, schedule: Q01DX001 (ip), vehicle: saline with Tween-80); 202 % of control (dose: 25.0 mg/kg/injection, schedule: Q01DX001 (ip), vehicle: saline); 215 % of control (dose: 50.0 mg/kg/injection, schedule: Q01DX001 (ip), vehicle: saline).

On to `BrP(Cc1ccccc1-c1ccccc1CP(Br)(c1ccccc1)(c1ccccc1)c1ccccc1)(c1ccccc1)(c1ccccc1)c1ccccc1`, for which the T/C runs as follows: (dose: 1.56 mg/kg/injection, schedule: Q01DX009 (ip), vehicle: saline) 103 % of control; (dose: 3.12 mg/kg/injection, schedule: Q01DX009 (ip), vehicle: saline) 102 % of control; (dose: 6.25 mg/kg/injection, schedule: Q01DX009 (ip), vehicle: saline) 100 % of control and 103 % of control.

For `O=C(NC(=S)c1ccc(Br)cc1)NS(=O)(=O)c1ccc(Cl)cc1`, the T/C is 96 % of control (dose: 100.0 mg/kg/injection, schedule: Q01DX001 (ip), vehicle: saline with Tween-80); 92 % of control (dose: 200.0 mg/kg/injection, schedule: Q01DX001 (ip), vehicle: saline with Tween-80); 102 % of control (dose: 400.0 mg/kg/injection, schedule: Q01DX001 (ip), vehicle: saline with Tween-80).

For `CN(C)CCCNc1c2c(nc3ccc(Cl)cc13)CCCC2`, the T/C was 104 % of control under setting [12] and 106 % of control under setting [13].

For the molecule `O=[N+]([O-])/C=C/c1cc(Cl)c(/C=C/[N+](=O)[O-])cc1Cl`, the T/C was 108 % of control and 121 % of control under setting [6]; 120 % of control and 122 % of control under setting [7]; 106 % of control and 123 % of control under setting [8]; 97 % of control (dose: 400.0 mg/kg/injection, schedule: Q01DX005 (ip), vehicle: Klucel (hydroxypropylcellulose) (HPC)).

In the case of `CC/C(=C(/CC)c1ccc(OC(=O)N(CCCl)CCCl)cc1)c1ccc(OC(=O)N(CCCl)CCCl)cc1`, the T/C under setting [14] was 97 % of control; the T/C under setting [15] is 99 % of control; the T/C (dose: 200.0 mg/kg/injection, schedule: Q01DX009 (ip), vehicle: saline) is 99 % of control.

With `CCCCCCCCCCCCCCN1CCSCC1`, the T/C reads like this: under setting [14], 101 % of control; under setting [15], 99 % of control.

As to `O=C1C=CC(=C2SCCS2)C(O)=C1`, the T/C is 100 % of control (dose: 50.0 mg/kg/injection, schedule: Q01DX009 (ip), vehicle: Klucel (hydroxypropylcellulose) (HPC)); 93 % of control (dose: 100.0 mg/kg/injection, schedule: Q01DX009 (ip), vehicle: Klucel (hydroxypropylcellulose) (HPC)); 97 % of control (dose: 200.0 mg/kg/injection, schedule: Q01DX009 (ip), vehicle: Klucel (hydroxypropylcellulose) (HPC)).

For the molecule `c1nc2c(o1)CCCC2`, the T/C is 104 % of control under setting [16]; 101 % of control under setting [17]; 95 % of control (dose: 240.0 mg/kg/injection, schedule: Q01DX005 (ip), vehicle: saline with Tween-80).

Take `CSc1nc2ncnn2c(=O)[nH]1`: the T/C is 100 % of control under setting [1]; 99 % of control under setting [2]; 98 % of control under setting [12]; 100 % of control under setting [3]; 105 % of control under setting [13]; 100 % of control under setting [4]. The T/C under setting [18] was 103 % of control.

Consider `COc1cccc(N(CCO)C2CCCCC2)c1`, for which the T/C by setting is: under setting [10], 100 % of control; under setting [11], 90 % of control; (dose: 400.0 mg/kg/injection, schedule: Q04DX003 (ip), vehicle: saline with Tween-80) 88 % of control.

With `NC(=S)COc1ccccc1`, the T/C reads like this: under setting [3], 105 % of control; under setting [4], 101 % of control; under setting [5], 105 % of control.

Consider `COc1cc2c(cc1OC)CC(=O)OC2`, for which the T/C was 105 % of control under setting [6], 102 % of control under setting [7] and 103 % of control under setting [8].

Turning to `CCOC(=O)c1ccc(NC(=O)c2ccccc2)cc1`, the T/C was 96 % of control (dose: 50.0 mg/kg/injection, schedule: Q01DX001 (ip), vehicle: Klucel (hydroxypropylcellulose) (HPC)); 90 % of control (dose: 100.0 mg/kg/injection, schedule: Q01DX001 (ip), vehicle: Klucel (hydroxypropylcellulose) (HPC)); 92 % of control (dose: 200.0 mg/kg/injection, schedule: Q01DX001 (ip), vehicle: Klucel (hydroxypropylcellulose) (HPC)); 95 % of control (dose: 400.0 mg/kg/injection, schedule: Q01DX001 (ip), vehicle: Klucel (hydroxypropylcellulose) (HPC)).

Regarding `CCn1c(=S)[nH]c2sc3c(c2c1=O)CCCC3`, the T/C under setting [16] is 92 % of control and the T/C under setting [17] was 89 % of control.

As for `C/C(=N\NC(=S)N1CCC(C)CC1)c1cccc2cccnc12`, the T/C runs as follows: under setting [12], 106 % of control; under setting [13], 104 % of control.

As for `N#Cc1ccc(C#N)cc1`, the T/C under setting [3] was 90 % of control; the T/C under setting [9] was 91 % of control; the T/C under setting [4] is 100 % of control; the T/C under setting [10] is 91 % of control; the T/C under setting [5] was 100 % of control; the T/C under setting [11] is 87 % of control.

For the molecule `CN(N=O)c1ccc(N=Nc2ccccc2)cc1`, the T/C by setting is: (dose: 60.0 mg/kg/injection, schedule: Q01DX005 (ip), vehicle: Klucel (hydroxypropylcellulose) (HPC)) 98 % of control; (dose: 120.0 mg/kg/injection, schedule: Q01DX005 (ip), vehicle: Klucel (hydroxypropylcellulose) (HPC)) 95 % of control; (dose: 240.0 mg/kg/injection, schedule: Q01DX005 (ip), vehicle: Klucel (hydroxypropylcellulose) (HPC)) 86 % of control.

As to `C=CCNC(=S)Nc1ccccn1`, the T/C under setting [12] was 104 % of control, the T/C under setting [13] was 100 % of control and the T/C under setting [18] is 102 % of control.

Consider `CCC(=O)OC1CCC2C3CCC(=O)OC3C(C)(CCC(=O)O)CC12C` (configuration not stated), for which the T/C by setting is: under setting [12], 93 % of control; under setting [13], 99 % of control; under setting [18], 90 % of control.

For `O=C(Nc1ccc(C2=NCCN2)cc1)c1ccc(NC(=O)c2ccc(C3=NCCN3)cc2)cc1`, the T/C was 154 % of control (dose: 18.0 mg/kg/injection, schedule: Q01DX010 (ip), vehicle: saline) and 172 % of control (dose: 27.0 mg/kg/injection, schedule: Q01DX010 (ip), vehicle: saline).

For the origin of these results see PubChem BioAssay AID330 (DTP/NCI, 2004).
